Converted amounts (≈) assume the structure as drawn.
Assays:
[1] = prior-art substrate; needs solubilizing auxiliary agent such as cyclodextrin or crown ether; cited from earlier work
[2] = stability (decomposition) of the substrate in aqueous solution; assay type: physicochemical
[3] = water solubility of the substrate (aqueous solution prepared)

SMILES | solubility in water (in words) [1] | degraded at 1 h ([2]; enzyme reaction conditions (pH 5, 37°C) for one hour, read-out: decomposition ratio) [%] | stability of aqueous solution ([2]; under ice-cooling) | degraded ([2]; water, aqueous solution left to stand at room temperature overnight) [%] | solubility [3] [mM]
CC(=O)N[C@H]1[C@H](Oc2ccc([N+](=O)[O-])cc2Cl)O[C@H](CO)[C@@H](O)[C@@H]1O [2-chloro-4-nitrophenyl-N-acetyl-β-D-glucosaminide] | difficult to dissolve in water | – | – | – | –
CC(=O)N[C@H]1[C@H](Oc2ccc([N+](=O)[O-])c([N+](=O)[O-])c2)O[C@H](CO)[C@@H](O)[C@@H]1O [3,4-DNG, 3,4-dinitrophenyl-N-acetyl-β-D-glucosaminide] | – | 1.5 | stable | ~1 | 12 (≈ 4650 µg/mL)

Reference: patent publication EP0411159B1, “METHOD FOR DETERMINING ENZYMATIC ACTIVITY” (IATRON LABORATORIES, INC., priority 1989, dated 1990)
